Experiments:
IRAK1 (miR146a target) = assay: Immunoblot of downstream target IRAK1; type: cell-based, mouse or human; settings: for IRAK1 (downstream target regulation): 500 nM, 48 hrs, RAW264.7 or A20 cells
Procedure: (§1) FIGS. 20A-20D. Effects of CpG-anti-miRNAs on downstream targets. […] Mouse RAW264.7 or human MV4-11 cells were incubated with 250 nM or 500 nM of CpG-anti-miR155, CpG-anti-miR125b, or CpG-anti-miR146a, or 500 nM of CpG-scramble for 48 h, then the cell lysates were collected and electrophoresed and immunoblotted by antibodies against SHIP1 (miR155 target) (FIG. 20A), IRF4 (miR125b target) (FIG. 20B), or IRAK1 (miR146a target) (FIG. 20C). The band intensities were normalized against β-actin and quantified. Fold induction over the control protein levels are indicated below the blot. FIG. 20D) MV4-11 cells were incubated with 500 nM of CpG-anti-miR155, CpG-antimiR125b, CpG-anti-miR146a, or CpG-scramble for 24 h, then cell lysates were collected and electrophoresed and immunoblotted to detect activated caspase 3 indicating induction of apoptosis.
(§2) FIGS. 21A-21H. Comparing the inhibition effects of CpG-anti-miR and GpC-anti-miR. […] The cells were incubated with 100 nM CpG-anti-miRs or GpC-anti-miRs for 18 hrs. […] RAW264.7 (FIGS. 21E,21G) or A20 cells (FIGS. 21F,21H) were incubated with 500 nM of CpG-anti-miR155, GpC-anti-miR155, or CpG-anti-miR146a, GpC-anti-miR146a for 48 hrs, then the cell lysates were collected and immunoblotted using antibodies against SHIP1 (miR155 target) or IRAK1 (miR146a target)
(§3) Mouse RAW264.7 or human MV4-11 cells were incubated with 250 nM or 500 nM of CpGanti-miR155, CpG-anti-miR125b, or CpG-anti-miR146a, or 500 nM of CpG-scramble for 48 h, then the cell lysates were collected and electrophoresed and immunoblotted by antibodies against SHIP1 (miR155 target) (FIG. 20A), IRF4 (miR125b target) (FIG. 20B), or IRAK1 (miR146a target) (FIG. 20C). The band intensities were normalized against β-actin and quantified. Fold induction over the control protein levels are indicated below the blot. FIG. 20D) MV4-11 cells were incubated with 500 nM of CpG-anti-miR155, CpG-antimiR125b, CpG-anti-miR146a, or CpG-scramble for 24 h, then cell lysates were collected and electrophoresed and immunoblotted to detect activated caspase 3 indicating induction of apoptosis. […]

[1] = system: human AML cells KG1a, MOLM13, and MOLM14; assay: Uptake of Cy3-labeled CpG-anti-miR146a by cultured AML cells; type: cell-based; settings: even at low concentrations
[2] = system: Human immune cells (CD14+ monocytes, CD1c+ mDCs, CD3+ T cells and CD19+ B cells); assay: Uptake of Cy3-labeled CpG-anti-miRs by human immune cells, flow cytometry; type: cell-based; settings: for intracellular uptake: Cy3-labeled, human immune cells
Procedure: FIGS. 16A-16B. Cell-selective uptake of CpG-anti-miR146a. […] CpG-anti-miR146a was Cy3-labeled to detect the intracellular uptake by target cells using flow cytometry. FIG. 16A) Human immune cells were incubated with indicated concentrations of CpG-anti-miR146acY3 for 1 hr. The uptake by CD14+ monocytes, CD1c+ mDCs, CD3+ T cells and CD19+ B cells was measured using flow cytometry.
where * indicates a phosphorothioate linkage, mN indicates a 2′OMe modified nucleotide, and x indicates a linker described herein. CpG-anti-miRNAs were Cy3-labeled to detect the intracellular uptake by target cells using flow cytometry. […] Treatment of these compounds reduces the corresponding miR expression in human and mouse myeloid cells (FIGS. 17A-17F, 18A-18F, 19A-19H).

miR-146a = assay: Mature miR-146a expression by TAQMAN qPCR; type: cell-based, human and mouse; settings: 100 nM
Procedure: FIGS. 19A-19H. Inhibitory effects of CpG-anti-miR146a. […] Mouse RAW264.7 (macrophages) (FIG. 19A) and DC2.4 (dendritic cells) (FIG. 19B) as well as human MV4-11 (FIG. 19C) and KG1a AML (FIG. 19D) cells were incubated with 100 nM CpG-anti-miR146a or CpG-scrambled RNA (negative control) for 18 h and then treated with 1 vg/ml LPS for 4 h. KG1a, MOLM13 (FIG. 19E), and MOLM14 (FIG. 19F) cells were incubated with 100 nM CpG-anti-miR146a or CpG-scrambled RNA for 18 h. FIGS. 19G-19H) Mouse CMM AML cells (FIG. 19G) and A20 lymphoma cells (FIG. 19H) were incubated with 100 nM CpG-miR146a mimic for 18 h. Mature miR-146a expression was measured using TAQMAN® qPCR assay and normalized to snoRNA234 levels. miR-146a expression level in untreated samples was set as 1.0. Data are shown as means±SEM (n=3). *P<0.05.
as §2
The cells were incubated with 100 nM CpG-anti-miRs or GpC-anti-miRs for 18 hrs. […] RAW264.7 (FIGS. 21E,21G) or A20 cells (FIGS. 21F,21H) were incubated with 500 nM of CpG-anti-miR155, GpC-anti-miR155, or CpG-anti-miR146a, GpC-anti-miR146a for 48 hrs, then the cell lysates were collected and immunoblotted using antibodies against SHIP1 (miR155 target) or IRAK1 (miR146a target).

miR-125b = assay: Mature miR-125b expression by TAQMAN qPCR; type: cell-based, human and mouse; settings: 100 nM, 18 h; various cell models
Procedure: FIGS. 18A-18F. Inhibitory effects of CpG-anti-miR125b. […] RAW264.7 (FIG. 18A), DC2.4 (FIG. 18B), and MV4-11 (FIG. 18C) cells were incubated with 100 nM CpG-anti-miR125b or CpG-scrambled RNA (negative control) for 18 h and then treated with 1 vg/mILPS for 4 h. Human AML cells—KG1a (FIG. 18D), MOLM13 (FIG. 18E), and MOLM14 (FIG. 18F)—were incubated with 100 nM CpG-anti-miR125b or control CpG-scrambled RNA for 18 h. Mature miR-125b expression was measured using TAQMAN® qPCR assay and normalized to snoRNA234 levels. miR-125b expression level in untreated samples was set as 1.0. Data are shown as means±SEM (n=3). *P<0.05.

IRF4 (miR125b target) = assay: Immunoblot of downstream target IRF4; type: cell-based, mouse or human; settings: 250 nM or 500 nM, 48 h; RAW264.7 or MV4-11 cells
Procedure: as §1
as §3, with “blot.” for “blot. FIG. 20D) MV4-11 cells were incubated with 500 nM of CpG-anti-miR155, CpG-antimiR125b, CpG-anti-miR146a, or CpG-scramble for 24 h, then cell lysates were collected and electrophoresed and immunoblotted to detect activated caspase 3 indicating induction of apoptosis.”

miR-126 = miR-126 expression in K562 and MV4-11 cells with miR-126 inhibitors or mimics; type: cell-based; settings: 500 nM, 24 hours
Procedure: FIGS. 26A-26E. Effective knockdown of miR-126 with miR-126 inhibitors conjugated with CpG, GpC and PS, and effective over-expression with miR-126 mimics in K562 and MV4-11 cells. K562 and MV4-11 cells were treated with miR-126 inhibitors conjugated with CpG, GpC, PS (FIGS. 26A-26B) or miR-126 mimics (615, 616 and 617) (FIGS. 26C-26D) (500 nM) for 24 hours, and miR-126 expression was measured in these cells. […] FIG. 26E) Tabulation of sequence set forth herein.
Effective knockdown of miR-126 with miR-126 inhibitors conjugated with CpG, GpC and PS, and effective over-expression with miR-126 mimics in K562 and MV4-11 cells. K562 and MV4-11 cells were treated with miR-126 inhibitors conjugated with CpG, GpC, PS (FIGS. 26A-26B) or miR-126 mimics (615, 616 and 617) (FIGS. 26C-26D) (500 nM) for 24 hours, and miR-126 expression was measured in these cells.

SHIP1 (miR155 target) = assay: Immunoblot of downstream target SHIP1; type: cell-based, mouse or human
Procedure: as §1
FIGS. 21A-21H. Comparing the inhibition effects of CpG-anti-miR and GpC-anti-miR. […]
Mouse RAW264.7 or human MV4-11 cells were incubated with 250 nM or 500 nM of CpGanti-miR155, CpG-anti-miR125b, or CpG-anti-miR146a, or 500 nM of CpG-scramble for 48 h, then the cell lysates were collected and electrophoresed and immunoblotted by antibodies against SHIP1 (miR155 target) (FIG. 20A), IRF4 (miR125b target) (FIG. 20B), or IRAK1 (miR146a target) (FIG. 20C). The band intensities were normalized against β-actin and quantified. […]

miR-155 = assay: Mature miR-155 expression by TAQMAN qPCR; type: cell-based, human and mouse; settings: 100 nM
Procedure: FIGS. 17A-17F. Inhibitory effects of CpG-anti-miR155. […] Mouse RAW264.7 (macrophages) (FIG. 17A) and DC2.4 (dendritic cells) (FIG. 17B) as well as human MV4-11 AML cells (FIG. 17C) were incubated with 100 nM CpG-anti-miR155 or CpG-scrambled RNA (negative control) for 18 h and then treated with 1 vg/ml LPS for 4 h. KG1a (FIG. 17D), MOLM13 (FIG. 17E), and MOLM14 (FIG. 17F) cells were incubated with 100 nM CpG-anti-miR155 or CpG-scrambled RNA for 18 h. Mature miR-155 expression was measured using TAQMAN® qPCR assay and normalized to snoRNA234 levels. miR-155 expression level in untreated samples was set as 1.0. Data are shown as means±SEM (n=3). *P<0.05.
as §2
The cells were incubated with 100 nM CpG-anti-miRs or GpC-anti-miRs for 18 hrs. […]

[3] = 250 nM or 500 nM, 48 h, RAW264.7 or MV4-11 cells
[4] = 18 h, human and mouse myeloid cells

Substance: 5′ G*G*T GCA TCG ATG CAGG*G*G* G*G xxxxx mC*mC*mC*mA*mU*mG*mG*mA*mA*mU*mU*mC*mA*mG*mU*mU*mC*mU*mC*mA 3′ [CpG-anti-miR146a]
- IRAK1 protein level (IRAK1 (miR146a target); [3]): upregulated
- IRAK1 (downstream target regulation) (IRAK1 (miR146a target)): regulates downstream targets
- internalization by cultured AML cells [1]: rapidly internalize
- intracellular uptake [2]: uptake of these compounds was observed
- internalization by target immune and leukemic cells ([2]; without any transfection reagents): Dose and time dependent internalization
- miR-146a expression (miR-146a; [4]): reduces miR-146a expression
- miR-146a expression (miR-146a; 18 hrs, RAW264.7 and A20 cells): reduces miR155 or miR-146a expression

Substance: 5′ G*G*T GCA TCG ATG CAGG*G*G* G*G xxxxx mU*mC*mA*mC*mA*mA*mG*mU*mU*mA*mG*mG*mG*mU*mC*mU*mC*mA*mG*mG*mG*mA 3′ [CpG-anti-miR125b]
- miR-125b expression (miR-125b): reduces miR-125b expression
- IRF4 protein level (downstream target regulation) (IRF4 (miR125b target)): regulate downstream targets
- intracellular uptake [2]: uptake of these compounds was observed

Substance: 5′ G*G*T*G*C*A*T*C*G*A*T*G*C*A*G*G*G*G*G*G (SEQ ID NO: 3) xxxxx mC*mG*mC* mA*mU*mU* mA*mU*mU* mA*mC*mU* mC*mA*mC* mG*mG*mU* mA*mC*mG*mA (SEQ ID NO: 48) 3′ [completely PS-modified oligo]
- miR-126 expression (knockdown by inhibitors) (miR-126): succeeds in blocking miR126

Substance: 5′ G*GT. GCA TGC ATG CAG G*G*G*G*G (SEQ ID NO: 2) xxxxx mCmGmC mAmUmU mAmUmU mAmCmU mCmAmC mGmGmU mAmCmG mA (SEQ ID NO: 17) 3′ [GpC]
- miR-126 expression (knockdown by inhibitors) (miR-126): succeeds in blocking miR126

Substance: 5′G*G*T GCA TCG ATG CAGG*G*G* G*G xxxxx mA*mC*mC*mC*mC*mU*mA*mU*mC*mA*mC*mA*mA*mU*mU*mA*mG*mC*mA*mU*mU*mA*mA 3′ [CpG-anti-miR155]
- SHIP1 protein level (SHIP1 (miR155 target); [3]): upregulated
- SHIP1 (downstream target regulation) (SHIP1 (miR155 target); 500 nM, 48 hrs, RAW264.7 or A20 cells): regulates downstream targets
- intracellular uptake [2]: uptake of these compounds was observed
- miR-155 expression (miR-155; [4]): reduces miR-155 expression
- miR155 expression (miR-155; 18 hrs, RAW264.7 and A20 cells): reduces miR155 or miR-146a expression

Substance: G*G*T GCA TGC ATG CAGG*G*G* G*G (SEQ ID NO: 2) xxxxx mC*mC*mC*mA*mT*mG*mG*mA*mA*mT*mT*mC*mA*mG*mT*mT*mC*mT*mC*mA (SEQ ID NO: 36) 3′ [GpC-anti-miR146a]
- IRAK1 (downstream target regulation) (IRAK1 (miR146a target)): regulates downstream targets
- miR-146a expression (miR-146a; 18 hrs, RAW264.7 and A20 cells): reduces miR155 or miR-146a expression
